Measured values: US5840732A, “Imidazopyridine or imidazopyrimidine compounds, their production and use” (Takeda Chemical Industries Ltd., priority 1994, dated 1998)

Columns and labels:
[1] = tested on: ICAM-1 expression in human umbilical cord vascular endothelial cells; assay: Inhibitory activity of adhesion molecule expression (ICAM-1, cell-ELISA); type: cell-based; conditions: TNFα 1 ng/ml, 37° C., 5 hours
Experimental: (§1) Inhibitory activity of adhesion molecule expression
(§2) Test method: To human umbilical cord vascular endothelial cells (purchased from Kurabo), cultured on gelatin-coated plates, compounds at various concentrations (test compounds) were added, followed by incubation at 37° C. for 15 minutes. Human tumor necrosis factor (TNFα, purchased from Genzyme) was then added to a final concentration of 1 ng/ml, followed by incubation at 37° C. for 3 hours for ELAM-1 expression or for 5 hours for ICAM-1 expression. After the reaction, cells were fixed with glutaraldehyde; the amounts of ELAM-1 and ICAM-1 expressed were determined by cell-ELISA. Anti-ELAM-1 antibody BBA-2 and an anti-ICAM-1 antibody BBA-4 were used as the first antibodies for the defection of ELAM-1 and ICAM-1, respectively, and horse radish peroxidase-labeled rabbit anti-mouse IgG antibody was used as the second antibody to determine the amount of adhesion molecules expressed on cells observed. The compound concentration at which 50% expression was expressed as the 50% inhibitory concentration (IC50), with the amount of expression in the absence of compounds as 100 and the amount of expression in the absence of TNFα as 0.

[2] = tested on: ELAM-1 expression in human umbilical cord vascular endothelial cells; assay: Inhibitory activity of adhesion molecule expression (ELAM-1, cell-ELISA); type: cell-based; conditions: TNFα 1 ng/ml, 37° C., 3 hours
Experimental: as §1, §2

[3] = tested on: Wistar fatty rats (rat model of hereditary obese diabetes mellitus); assay: Diabetic nephritis improving action in Wistar fatty rats; type: in vivo, rat (male Wistar fatty); conditions: 50 mg/kg/day oral, 12 weeks, n=6, mean ± standard deviation; for Urinary Albumin: control 35.69 ± 15.44 (for 2), 24.53 ± 7.19 (for 3); for Urinary Total Protein: control 145.19 ± 34.99 (for 2), 131.53 ± 22.81 (for 3), both p < 0.05 vs control; for Plasma Glucose: control 352.00 ± 36.09 (for 2), 368.83 ± 24.35 (for 3), 3: p < 0.05 vs control
Experimental: Diabetic nephritis improving action in Wistar fatty rats (rat model of hereditary obese diabetes mellitus)
Test method: Male Wistar fatty rats at 9 weeks of age were divided into two groups according to plasma glucose level, urinary total protein excretion and body weight: a control group and a test compound group (n=6). The test compound, in suspension in 0.5% methyl cellulose (Wako Pure Chemical) at 2 ml/kg, was orally administered by gavage once a day for 12 consecutive weeks. For the control group, only the 0.5% methyl cellulose suspension was orally administered in the same manner as the test compounds. At every 3 weeks, plasma glucose, urinary total protein and albumin excretion were quantitated by the enzyme method, the Lowry method (Journal of Biological Chemistry, Vol. 193, pp. 265-275 (1951)] and the method of Mohamed et al. [Journal of Immunology Methods, Vol. 74, pp. 17-22 (1984)], respectively.

Structure (SMILES) | IC50 [1] [µM] | IC50 [2] [µM] | Urinary Albumin [3] [mg/day] | Urinary Total Protein [3] [mg/day] | Plasma Glucose [3] [mg/dL]
CCCC=C1SC(=O)N(CCCCSc2cccc3nccn23)C1=O [compound 2] | 3 | 2.9 | 20.49 ± 6.95 | 96.64 ± 18.31 | 333.67 ± 46.41
CCCC=C1SC(=O)N(CCCCCc2cccc3nccn23)C1=O [compound 3] | 4.2 | 5 | 22.34 ± 7.24 | 97.61 ± 16.26 | 253.17 ± 34.14
CCCC=C1SC(=O)N(CCSc2cccc3nccn23)C1=O [compound 5] | 3.5 | 5.3 |  |  | 
CCCCCCCCCC=C1SC(=O)N(CCCCSc2cccc3nccn23)C1=O [compound 6] | 6.3 | 7.3 |  |  | 
CCCC=C1SC(=O)N(CCCCc2cccc3nccn23)C1=O [compound 7] | 3.1 | 2.3 |  |  | 
CCCC=C1SC(=O)N(CCCCOc2cccc3nccn23)C1=O [compound 8] | 4.4 | 3.8 |  |  | 
CCCC=C1OC(=O)N(CCCCSc2cccc3nccn23)C1=O [compound 9] | 2.4 | 2.6 |  |  | 
CCC=C1SC(=O)N(CCCCSc2cccc3nccn23)C1=O [compound 10] | 2.4 | 2.3 |  |  | 
CC=C1SC(=O)N(CCCCSc2cccc3nccn23)C1=O [compound 11] | 2.9 | 1.9 |  |  | 
CCCC=C1SC(=O)N(CCCc2cccc3nccn23)C1=O [compound 12] | 4.9 | 4.4 |  |  | 
CCCC=C1SC(=O)N(CSc2cccc3nccn23)C1=O [compound 13] | 6.3 | 5.1 |  |  | 
CCCC=C1SC(=O)N(CCc2cccc3nccn23)C1=O [compound 14] | 6.1 | 5.1 |  |  | 
CCCC=C1SC(=O)N(Cc2cccc3nccn23)C1=O [compound 15] | 7 | 6.2 |  |  | 
O=C1SC(=CCCc2ccccc2)C(=O)N1CCCCSc1cccc2nccn12 [compound 19] | 3.9 | 3 |  |  | 
O=C1SC(=CCCCc2ccccc2)C(=O)N1CCCCSc1cccc2nccn12 [compound 21] | 4 | 3.3 |  |  | 
CCCC=C1SC(=O)N(CCCCSc2cccc3nc(C)cn23)C1=O [compound 23] | 7 | 3.6 |  |  | 

Structure (SMILES) | IC50 [1] [µM] | IC50 [2] [µM] | Urinary Albumin [3] [mg/day] | Urinary Total Protein [3] [mg/day] | Plasma Glucose [3] [mg/dL]
CCCC=C1SC(=O)N(CCCCSc2nccc3nccn23)C1=O [compound 25] | 8 | 4 |  |  | 
CCCC=C1SC(=O)N(CCCCOc2cccn3cc(-c4ccccc4)nc23)C1=O [compound 26] | 3.7 | 4.1 |  |  | 
CCCC=C1SC(=O)N(CCCCOc2cccn3cc(C(=O)OCC)nc23)C1=O [compound 27] | 6.5 | 5 |  |  | 
O=C1OC(=CCCc2ccccc2)C(=O)N1CCCCOc1cccn2ccnc12 [compound 32] | 5.7 | 3.2 |  |  | 
O=C1OC(=CCCc2ccccc2)C(=O)N1CCCCSc1cccc2nccn12 [compound 33] | 6.3 | 2.8 |  |  | 
CCCC=C1SC(=O)N(CCCCOc2cccn3c(C(=O)C(F)(F)F)cnc23)C1=O [compound 34] | 6.1 | 5.2 |  |  | 
CCCC=C1SC(=O)N(CCCCSc2cccc3ncc(C(=O)C(F)(F)F)n23)C1=O [compound 35] | 4.6 | 3.4 |  |  | 
O=c1c(-c2ccccc2)c2n(c(=O)n1CCCCSc1cccc3nccn13)CCS2(=O)=O [compound 36] | 3.7 | 2.1 |  |  | 
O=C1SC(=CCCc2cccnc2)C(=O)N1CCCCSc1cccc2nccn12 [compound 38] | 3.7 | 3.4 |  |  | 
O=C1SC(=CCCc2cccnc2)C(=O)N1CCCCOc1cccn2ccnc12 [compound 39] | 2.4 | 3.3 |  |  | 
Cc1c2n(c(=O)n(CCCCSc3cccc4nccn34)c1=O)CCCS2(=O)=O [compound 40] | 1.8 | 1.1 |  |  | 
O=c1c(Cc2ccccc2)c2n(c(=O)n1CCCCSc1cccc3nccn13)CCCS2(=O)=O [compound 41] | 0.9 | 0.5 |  |  | 
CC(C)c1c2n(c(=O)n(CCCCSc3cccc4nccn34)c1=O)CCCS2(=O)=O [compound 42] | 1.5 | 1 |  |  | 
O=c1cc2n(c(=O)n1CCCCSc1cccc3nccn13)CCCS2(=O)=O [compound 43] | 3.5 | 2.2 |  |  | 
CCCC=C1SC(=O)N(CCCOc2cccn3ccnc23)C1=O [compound 47] | 4.2 | 3 |  |  | 

Further lines, with some results ahead:

IC50 [1] [µM] | IC50 [2] [µM] | Structure (SMILES) | Urinary Albumin [3] [mg/day] | Urinary Total Protein [3] [mg/day] | Plasma Glucose [3] [mg/dL]
6.4 | 4.6 | CCCC=C1SC(=O)N(CCCCOc2cccn3cc(C)nc23)C1=O [compound 48] |  |  | 
6.9 | 4.7 | CCCC=C1SC(=O)N(CCCCSc2cccc3ncc(Br)n23)C1=O [compound 50] |  |  | 
6.8 | 2.8 | O=c1c(-c2ccccc2)c2n(c(=O)n1CCCCSc1cccc3nccn13)CCC[S+]2[O-] (stereo not drawn) [compound 51] |  |  | 
6.3 | 6.2 | O=C(NCCCn1c(=O)c(-c2ccccc2)c2n(c1=O)CCCS2(=O)=O)OCCc1cccc2nccn12 [compound 53] |  |  | 
5 | 6.1 | CCCC=C1SC(=O)N(CCC(C)(C)CCSc2cccc3nccn23)C1=O [compound 54] |  |  | 
5.5 | 7.3 | CCCC=C1SC(=O)N(CCC2(CCSc3cccc4nccn34)CCCC2)C1=O [compound 55] |  |  | 
5.7 | 3.9 | CN(C)Cc1cnc2cccc(SCCCCn3c(=O)c(-c4ccccc4)c4n(c3=O)CCCS4(=O)=O)n12 [compound 56] |  |  | 
7.1 | 7.9 | CCCCCCC=C1SC(=O)N(CCCCSc2cccc3nccn23)C1=O [compound 57] |  |  | 
9 | 9.2 | CCCCCCCC=C1SC(=O)N(CCCCSc2cccc3nccn23)C1=O [compound 60] |  |  | 
5.3 | 5 | O=C1SC(=CCCCCc2ccccc2)C(=O)N1CCCCSc1cccc2nccn12 [compound 65] |  |  | 
3.9 | 3.4 | O=C1SC(=CCCc2ccccc2)C(=O)N1CCCCOc1cccn2ccnc12 [compound 67] |  |  | 
5 | 3.2 | CCC=C1SC(=O)N(CCCCOc2cccn3ccnc23)C1=O [compound 68] |  |  | 
6.1 | 4 | CCCCC=C1SC(=O)N(CCCCOc2cccn3ccnc23)C1=O [compound 69] |  |  | 
6.9 | 5.3 | CCCCCC=C1SC(=O)N(CCCCOc2cccn3ccnc23)C1=O [compound 70] |  |  | 
5.2 | 4.6 | CCCCCCCC=C1SC(=O)N(CCCCOc2cccn3ccnc23)C1=O [compound 71] |  |  | 
5.6 | 6.4 | CCCCCCCCCC=C1SC(=O)N(CCCCOc2cccn3ccnc23)C1=O [compound 72] |  |  | 
6.1 | 3.5 | CCCCCC=C1OC(=O)N(CCCCOc2cccn3ccnc23)C1=O [compound 75] |  |  | 
7.1 | 6.7 | CCC/C=C1\OC(=O)N(CCCCOc2cccn3c(C(=O)C(F)(F)F)cnc23)C1=O [compound 76] |  |  | 
6 | 6.3 | CCC/C=C1/OC(=O)N(CCCCOc2cccn3c(C(=O)C(F)(F)F)cnc23)C1=O [compound 77] |  |  | 
5.9 | 6.1 | O=C(CCCSc1cccc2nccn12)NCCCn1c(=O)c(-c2ccccc2)c2n(c1=O)CCCS2(=O)=O [compound 79] |  |  | 
4.1 | 4.6 | COc1ccc(CCC=C2SC(=O)N(CCCCSc3cccc4nccn34)C2=O)cc1 [compound 80] |  |  | 
4.3 | 6.1 | COc1ccccc1CCC=C1SC(=O)N(CCCCSc2cccc3nccn23)C1=O [compound 81] |  |  | 
3.6 | 4.3 | O=C1SC(=CCCc2ccc(F)cc2)C(=O)N1CCCCSc1cccc2nccn12 [compound 82] |  |  | 
3.8 | 3.7 | O=C1SC(=CCCc2ccccc2F)C(=O)N1CCCCSc1cccc2nccn12 [compound 83] |  |  | 
3.6 | 4.1 | O=C1SC(=CCCc2ccccc2Cl)C(=O)N1CCCCSc1cccc2nccn12 [compound 84] |  |  | 
3.9 | 4.3 | O=C1SC(=CCCc2ccc(Cl)cc2)C(=O)N1CCCCSc1cccc2nccn12 [compound 85] |  |  | 
